{"source": "BindingDB's records for doi:10.1016/j.bmcl.2008.02.009", "about": "(Novartis Institutes For Biomedical Research, 2008)", "key": {"[1]": {"molecular_target": "T1, Farnesyl pyrophosphate synthase (Homo sapiens, UniProt P14324)", "T1 sequence (P14324 whole entry)": "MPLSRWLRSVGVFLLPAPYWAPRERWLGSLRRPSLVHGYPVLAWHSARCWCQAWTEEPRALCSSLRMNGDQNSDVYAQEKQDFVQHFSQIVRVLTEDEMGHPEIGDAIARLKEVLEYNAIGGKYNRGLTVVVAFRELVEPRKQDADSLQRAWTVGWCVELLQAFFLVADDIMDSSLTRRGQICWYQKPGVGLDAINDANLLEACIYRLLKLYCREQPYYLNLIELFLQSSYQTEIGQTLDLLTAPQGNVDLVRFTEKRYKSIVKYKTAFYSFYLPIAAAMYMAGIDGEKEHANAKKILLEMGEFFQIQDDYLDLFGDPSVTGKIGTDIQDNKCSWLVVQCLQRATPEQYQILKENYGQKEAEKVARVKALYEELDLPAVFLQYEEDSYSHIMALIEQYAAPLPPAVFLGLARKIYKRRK", "assay": "Inhibition of human FPPS"}, "[2]": {"molecular_target": "T2, Isoprenyl transferase (Streptococcus pneumoniae serotype 4 (strain ATCC BAA-334 / TIGR4), UniProt Q97SR4)", "T2 sequence (Q97SR4 whole entry)": "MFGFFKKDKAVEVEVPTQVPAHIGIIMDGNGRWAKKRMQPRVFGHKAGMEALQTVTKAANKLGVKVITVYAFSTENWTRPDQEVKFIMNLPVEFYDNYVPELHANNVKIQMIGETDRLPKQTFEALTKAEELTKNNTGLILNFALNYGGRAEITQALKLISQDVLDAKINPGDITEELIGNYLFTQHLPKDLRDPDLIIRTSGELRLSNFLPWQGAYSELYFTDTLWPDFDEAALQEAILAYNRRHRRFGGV", "assay": "Inhibition of Streptococcus pneumoniae UPPS"}}, "note": "pIC50: −log10 of the molar value.", "data": [{"smiles": "O=C1CC(Cc2ccccc2)NC(=O)C1C(=O)Nc1ccc(N2CCCCC2)cc1", "note": "(stereo unspecified)", "values": [{"measurement": "pIC50", "setting": "[1]", "result": "< 4.30"}, {"measurement": "pIC50", "setting": "[2]", "result": 6.96}]}, {"smiles": "O=C1CC(Cc2ccccc2)NC(=O)C1C(=O)Nc1ccc(Oc2ccccc2)cc1", "note": "(stereo unspecified)", "values": [{"measurement": "pIC50", "setting": "[1]", "result": "< 4.30"}, {"measurement": "pIC50", "setting": "[2]", "result": 6.96}]}, {"smiles": "O=C1CC(Cc2ccccc2)NC(=O)C1C(=O)Nc1ccc(Nc2ccccc2)cc1", "note": "(stereo unspecified)", "values": [{"measurement": "pIC50", "setting": "[2]", "result": 5.96}]}, {"smiles": "O=C(Nc1ccc(-c2ccccc2)cc1)C1C(=O)OC(Cc2ccccc2)C1=O", "note": "(stereo unspecified)", "values": [{"measurement": "pIC50", "setting": "[2]", "result": 5.96}]}]}
